# Experimental data reported in patent US20170216277A1, “[…] USE OF […] […] EFFECTS” (TREVI THERAPEUTICS, INC., priority 2016, published 2017).
# Experiments:
# [1] = Urine output over 24 hours, Phase I trial TR01, healthy subjects (Cohort 2); conditions: five 24-hour collections, progressively higher doses
# Description: (§1) The presence and extent of a possible aquaretic effect was evaluated by measuring urine output (healthy subjects only) and serum sodium as well as blood pressure and heart rate, as markers of potential volume depletion. Urine specific gravity was also analyzed to assess for reduced urine osmolarity (resulting in a decrease in urine specific gravity) due to free water excretion.
# [2] = Overall evaluation of aquaretic effect, TR01; assay type: in vivo, human
# Description: as §1
# [3] = Serum sodium (pre-dialysis), TR01, hemodialysis patients (Cohort 1); assay type: in vivo, human
# [4] = Heart rate, TR01, healthy subjects; assay type: in vivo, human
# Description: (§2) The presence and extent of a possible aquaretic effect was evaluated by measuring urine output (healthy subjects only) and serum sodium as well as blood pressure and heart rate, as markers of potential volume depletion.
# (§3) In the dialysis patients, all vital sign measurements and blood samples were collected pre-dialysis. On days of study drug administration, vital signs were measured at 0 (prior to the morning dose), 1.5, 4.5, and 8 hours after the morning dose and 2 hours after the evening meal, coinciding with administration of the PM dose. Blood pressure was also measured at 6 and 10 hours post dinner. On Day −1 (pre-treatment) vital sign measurements were obtained in the morning and evening at approximately the same time that study drug was administered on subsequent treatment days.
# (§4) Blood pressure and heart rate were measured at multiple time points on Days −1 through 14 or 17.
# [5] = Heart rate, TR01, hemodialysis patients; assay type: in vivo, human
# Description: as §2, §3, §4
# [6] = Blood pressure (diastolic and systolic), TR01, hemodialysis patients
# Description: as §2, §3, §4
# [7] = Serum sodium, TR01, healthy subjects (Cohort 2); assay type: in vivo, human
# [8] = oral aqueous solution; fasted conditions, across studies
# [9] = Blood pressure (diastolic and systolic), TR01, healthy subjects
# Description: as §2, §3, §4
# [10] = Adverse event reporting of increased urine output, TR01, hemodialysis patients; assay type: in vivo, human; conditions: dialysis patients in TR01; urine collection not performed
# Description: Based on historical data, the dialysis patients in TR01 had limited to no residual renal function.
substance,measurement,setting,value
"17-(cyclobutylmethyl)-4,5α-epoxymorphinian-3,6α,14-triol, hydrochloride [nalbuphine]",Increased urine output related to dose or duration of time on nalbuphine,[1],no evidence of increased urine output
same,Aquaretic effect,"[2]; dialysis patients, doses up to 240 mg BID",no evidence of an aquaretic effect
same,Aquaretic effect,"[2]; healthy subjects, doses up to 180 mg BID",no evidence of an aquaretic effect
same,Hypernatremia during nalbuphine treatment,[3],No healthy subject (Table 5) or hemodialysis patient
same,Trend of rising serum sodium during the treatment period,[3],nor was there a trend of rising serum sodium
same,Dose or time-dependent mean heart rate increase,[4],no evidence of a dose or time-dependent mean heart rate increase
same,Dose or time-dependent mean heart rate increase,[5],no evidence of a dose or time-dependent mean heart rate increase
same,Systolic blood pressure range throughout the study,[6]; dialysis patients,70-199 mmHg
same,Dose-related reductions in blood pressure,"[6]; hemodialysis patients, Days −1 through 14 or 17",no consistent dose-related reductions in blood pressure
same,Hypotension,"[6]; hemodialysis patients, throughout the study",no subjects or patients developed hypotension
same,Hypernatremia during nalbuphine treatment,[7],No healthy subject
same,Trend of rising serum sodium during the treatment period,[7],nor was there a trend of rising serum sodium
same,Median Tmax,[8],30 to 60 min
same,Systolic blood pressure range throughout the study,[9],78-148 mmHg
same,Dose-related reductions in blood pressure,[9]; Days −1 through 14,no consistent dose-related reductions in blood pressure
same,Hypotension,[9]; throughout the study,no subjects or patients developed hypotension
same,Adverse event of increased urine output,[10],no adverse event of increased urine output was reported
